How the values were obtained:
[1] = system: CAL-51 (Breast Carcinoma); test: Bliss excess, mean over the matrix (fraction); higher = more synergy
Outline: (§1)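 After 24 hours at 37°C and 5% CO2 in 1536-well plates, cells in DMEM/F12 or RPMI plus 10% FBS received two-drug dose matrices for 72 hours. Viability came from CellTiter-Glo 2.0 luminescence and was scaled as inhibition, anchored at 0 by vehicle wells and at 1 by blank wells. Combination Emax is taken as the second-highest inhibition in the matrix, and Bliss excess as the observed combination effect less EA + EB − EA·EB, with EA and EB the single-agent effects.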

COLO-829 (Melanoma) [2] = test: as above
Outline: as §1

[3] = system: MHH-PREB-1 (B-Cell Non-Hodgkin's Lymphoma); test: as above
Outline: as §1

[4] = system: UMC-11 (Other Solid Carcinomas); test: as above
Outline: as §1

[5] = system: LB771-HNC (Head and Neck Carcinoma); test: as above
Outline: as §1

[6] = system: NCI-H747 (Colorectal Carcinoma); test: as above
Outline: as §1

[7] = system: KARPAS-231 (B-Cell Non-Hodgkin's Lymphoma); test: as above
Outline: as §1

[8] = system: HCC-15 (Squamous Cell Lung Carcinoma); test: as above
Outline: as §1

[9] = system: 639-V (Bladder Carcinoma); test: as above
Outline: as §1

[10] = system: OVCAR-8 (Ovarian Carcinoma); test: as above
Outline: as §1

[11] = system: TE-4 (Esophageal Squamous Cell Carcinoma); test: as above
Outline: as §1

[12] = system: KYSE-410 (Esophageal Squamous Cell Carcinoma); test: as above
Outline: as §1

[13] = system: SW626 (Colorectal Carcinoma); test: as above
Outline: as §1

[14] = system: CAL-51 (Breast Carcinoma); test: combination Emax (second highest fraction inhibited in the dose matrix, 72 h); higher = more inhibition; extreme values may be limits of the assay
Outline: as §1

COLO-829 (Melanoma) [15] = test: as above
Outline: as §1

[16] = system: MHH-PREB-1 (B-Cell Non-Hodgkin's Lymphoma); test: as above
Outline: as §1

[17] = system: UMC-11 (Other Solid Carcinomas); test: as above
Outline: as §1

[18] = system: LB771-HNC (Head and Neck Carcinoma); test: as above
Outline: as §1

[19] = system: NCI-H747 (Colorectal Carcinoma); test: as above
Outline: as §1

[20] = system: KARPAS-231 (B-Cell Non-Hodgkin's Lymphoma); test: as above
Outline: as §1

[21] = system: HCC-15 (Squamous Cell Lung Carcinoma); test: as above
Outline: as §1

[22] = system: 639-V (Bladder Carcinoma); test: as above
Outline: as §1

[23] = system: OVCAR-8 (Ovarian Carcinoma); test: as above
Outline: as §1

[24] = system: TE-4 (Esophageal Squamous Cell Carcinoma); test: as above
Outline: as §1

[25] = system: KYSE-410 (Esophageal Squamous Cell Carcinoma); test: as above
Outline: as §1

[26] = system: SW626 (Colorectal Carcinoma); test: as above
Outline: as §1
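Wherever Bliss excess, mean over the matrix is given: after 72 h of two-drug dosing.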

| SMILES | Bliss excess [1] | Bliss excess (COLO-829 (Melanoma) [2]) | Bliss excess [3] | Bliss excess [4] | Bliss excess [5] | Bliss excess [6] | Bliss excess [7] | Bliss excess [8] | Bliss excess [9] | Bliss excess [10] | Bliss excess [11] | Bliss excess [12] | Bliss excess [13] | combination Emax [14] | combination Emax (COLO-829 (Melanoma) [15]) | combination Emax [16] | combination Emax [17] | combination Emax [18] | combination Emax [19] | combination Emax [20] | combination Emax [21] | combination Emax [22] | combination Emax [23] | combination Emax [24] | combination Emax [25] | combination Emax [26] |
| --- | --- | --- | --- | --- | --- | --- | --- | --- | --- | --- | --- | --- | --- | --- | --- | --- | --- | --- | --- | --- | --- | --- | --- | --- | --- | --- |
| C[C@@H](c1ccc2nccn2c1)n1nnc2ncc(-c3cnn(C)c3)nc21 [Savolitinib] + CN(CC[C@H](CSC1=CC=CC=C1)NC2=C(C=C(C=C2)S(=O)(=O)NC(=O)C3=CC=C(C=C3)N4CCC(CC4)[C@H](C5=CC=CC=C5C6=CC=C(C=C6)Cl)O)S(=O)(=O)C(F)(F)F)CCO [AZD4320] (first compound max 1 µM, 7x7, partner max 1 µM) | -0.0375 | -0.0397 | -0.0481 | 0.0211 | -0.042 | -0.0808 | -0.0299 | -0.0203 | -0.0957 | -0.0373 | -0.0244 | -0.0588 | -0.108 | 0.207 | 0.278 | 0.139 | 0.401 | 0.154 | 0.208 | 0.907 | 0.916 | 0.172 | 0.0738 | 0.145 | 0.174 | 0.582 |
| COc1nnc2ccc(N3CCC(c4ccc(OCCN5CCN(C)C(=O)[C@H]5C)cc4)CC3)nn12 [AZD5153] + CN(CC[C@H](CSC1=CC=CC=C1)NC2=C(C=C(C=C2)S(=O)(=O)NC(=O)C3=CC=C(C=C3)N4CCC(CC4)[C@H](C5=CC=CC=C5C6=CC=C(C=C6)Cl)O)S(=O)(=O)C(F)(F)F)CCO [AZD4320] (first compound max 1 µM, 7x7, partner max 1 µM) | 0.0267 | -0.0466 | 0.0343 | 0.0086 | 0.0273 | -0.0055 | -0.159 | -0.0023 | 0.034 | 0.0081 | 0.0449 | 0.0046 | 0.0477 | 0.843 | 0.143 | 0.47 | 0.848 | 0.524 | 0.728 | 1 | 0.994 | 0.606 | 0.733 | 0.336 | 0.259 | 0.777 |
| CC(=O)c1c(C)c2cnc(Nc3ccc(N4CCNCC4)cn3)nc2n(C2CCCC2)c1=O [Palbociclib] + CN(CC[C@H](CSC1=CC=CC=C1)NC2=C(C=C(C=C2)S(=O)(=O)NC(=O)C3=CC=C(C=C3)N4CCC(CC4)[C@H](C5=CC=CC=C5C6=CC=C(C=C6)Cl)O)S(=O)(=O)C(F)(F)F)CCO [AZD4320] (first compound max 10 µM, 7x7, partner max 1 µM) | -0.123 | -0.117 | -0.041 | 0.0057 | -0.0584 | -0.0425 | -0.0645 | -0.0553 | -0.124 | -0.0261 | 0.001 | -0.0667 | -0.0921 | 0.479 | 0.33 | 0.492 | 0.631 | 0.206 | 0.555 | 0.98 | 0.982 | 0.198 | 0.173 | 0.341 | 0.41 | 0.662 |

Reference: the supplement of paper PMC11061612
